One test concerns H460 lung cancer cells. The test can be described thus: subcutaneous tumorigenesis experiment with SX-pretreated lung cancer cells (H460). Format: in vivo, mice. The following applies: cells treated with 10 μM SX for 7 d. As to the method:
(§1) Experimental method and steps: Cancer cells were treated with salmeterol xinafoate (SX) in vitro for 3-7 d, and a subcutaneous or orthotopic tumorigenesis experiment was conducted on mice.
In FIG. 6A, H460 lung cancer cells were treated with 10 μM salmeterol xinafoate (SX) for 7 d, and cells (3×10^5/mouse) were subcutaneously injected on both sides of the back of mice in a control group (7 mice) and an SX treated group (5 mice) to conduct a tumorigenesis experiment.
Experimental results in FIG. 6 show cancer growth curves and representative cancer photos.

The test system of test [1] is esophageal cancer cells KYSE-150. The test can be described thus: tumor sphere formation assay of esophageal cancer cells. Format: cell-based. The following applies: 10 μM, 7 d; FIG. 15; P<0.05. The text has this: (§2) As a gold standard for detecting the self-renewal capability of cancer stem cells in vitro, a tumor sphere formation assay may detect individual cancer stem cell that continuously self-renew in a conditioned medium and form tumor spheres consisting of multiple cells. This in vitro experiment is often used to test the responsiveness of clinical patients to anticancer drugs, and guide in vivo medication of the clinical patients.
According to culture conditions in Table 5, esophageal cancer cells KYSE-150 were subjected to a tumor sphere formation assay, and treated with salmeterol xinafoate (SX) at a concentration of 10 μM.

Test [2] has as its system CAL-27 head and neck cancer cells. The test can be described thus: subcutaneous tumorigenesis experiment with SX-pretreated head and neck cancer cells. Format: in vivo, mice. The following applies: cells treated with 10 μM SX for 3 d, 1×10^6/mouse; FIG. 7; P<0.0001 vs control. Here is the method: as §1
CAL-27 head and neck cancer cells were treated with 10 μM salmeterol xinafoate (SX) for 3 d, and cells (1×10^6/mouse) were subcutaneously injected on both sides of the back of mice in a control group and an SX treated group (3 mice/group) to conduct a tumorigenesis experiment.
Experimental results in FIG. 7 show cancer growth curves.

The subject of test [3] is breast cancer cells MDA-MB-231, 4T1, 168FARN, 67NR, 4TO7. Briefly: tumor sphere formation assay of breast cancer cells. Particulars: 1 μM, 3 μM, or 10 μM, 7 d; FIG. 11. Format: cell-based.
Text: as §2
Experimental results in FIG. 11 show the number of tumor spheres from at least 3 independent experiments and representative tumor sphere photos.

The test system of test [4] is liver cancer cells Hep G2. Briefly: tumor sphere formation assay of liver cancer cells. Format: cell-based. The following applies: 1 μM, 3 μM, or 10 μM, 7 d; FIG. 20.
Text: as §2

Test [5] relates to cervical cancer cells Hela. The test can be described thus: tumor sphere formation assay of cervical cancer cells. Format: cell-based. The following applies: 1 μM, 3 μM, or 10 μM, 7 d; FIG. 27.
Text: as §2

In test [6] the test system is CT-26 colorectal cancer cells. The test can be described thus: subcutaneous tumorigenesis experiment with SX-pretreated colorectal cancer cells. The following applies: cells treated with 10 μM SX for 7 d. Format: in vivo, mice. Here is the method:
as §1
CT-26 colorectal cancer cells were treated with 10 μM salmeterol xinafoate (SX) for 7 d, and cells (1×10^5/mouse) were subcutaneously injected on both sides of the back of mice in a control group and an SX treated group (5 mice/group) to conduct a tumorigenesis experiment. 10 cancers formed subcutaneously at 10 injection sites of 5 mice in the control group, and 8 cancers formed subcutaneously at 10 injection sites of 5 mice in the SX treated group.
Experimental results in FIG. 5 show cancer growth curves and representative cancer photos.

Test [7] has as its system kidney cancer cells G-401, 786-O. Briefly: tumor sphere formation assay of kidney cancer cells. Format: cell-based. Particulars: 1 μM, 3 μM, or 10 μM, 7 d; FIG. 22.
Text: as §2

For another test, the system named is hematoma cells SU-DHL-8. Briefly: tumor sphere formation assay of hematoma cells. Format: cell-based. Particulars: 1 μM, 3 μM, or 10 μM, 7 d; FIG. 18.
Text: as §2

Molecules are shown by their SMILES.

The values below come from US20260216103A1, “USE OF LONG-ACTING ß2AR AGONIST IN PREPARATION OF DRUGS FOR TREATING CANCERS” (HONG KONG SXMETEROL PHARMACEUTICAL CO., LIMITED, priority 2023, published 2026).

As for `OCc1cc(C(O)CNCCCCCCOCCCCc2ccccc2)ccc1O` (centres unmarked) [salmeterol xinafoate], the “cancers formed subcutaneously at injection sites” value with H460 lung cancer cells (3×10^5/mouse, 10 injection sites of 5 mice, control group 11 at 14 sites) is “no cancers formed”; in test [6] (1×10^5/mouse, 10 injection sites of 5 mice, control group 10), 8. Moreover, the “cancer growth curves (initiation and progression)” value in the test on H460 lung cancer cells (FIG. 6A, P<0.0001 vs control) was “inhibits the initiation and progression of subcutaneous lung cancer”; in test [2] it was “inhibits the initiation and progression of subcutaneous head and neck cancer”; in test [6] (FIG. 5, P<0.0001 vs control), “inhibits the initiation and progression of subcutaneous colorectal cancer”. The “number of tumor spheres (self-renewal capability of cancer stem cells)” value in [1] was “inhibited the self-renewal capability of the esophageal cancer stem cells”; in [3], “inhibited the self-renewal capability of the breast cancer stem cells in a concentration dependent manner”; in [4], “inhibited the self-renewal capability of the liver cancer stem cells in a concentration dependent manner”; in test [5], “inhibited the self-renewal capability of the cervical cancer stem cells in a concentration dependent manner”; in test [7], “inhibited the self-renewal capability of the kidney cancer stem cells in a concentration dependent manner”; in the test on hematoma cells SU-DHL-8, “inhibited the self-renewal capability of the hematoma stem cells in a concentration dependent manner”.
